{"source": "patent US20070026398A1", "about": "“Protein tyrosine phosphatase-prl-1 a a marker and therapeutic target for pancreatic cancer” (priority 2003, published 2007)", "key": {"PRL-1": {"molecular_target": "T1, PRL-1 (Homo sapiens, UniProt Q93096)", "T1 sequence (Q93096 1-173)": "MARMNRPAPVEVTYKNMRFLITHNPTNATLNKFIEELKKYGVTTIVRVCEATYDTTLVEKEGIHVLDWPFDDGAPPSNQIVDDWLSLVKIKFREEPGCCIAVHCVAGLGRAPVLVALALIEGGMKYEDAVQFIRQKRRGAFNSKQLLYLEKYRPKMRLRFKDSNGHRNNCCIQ", "experiment": "in vitro PRL-1 phosphatase enzymatic assay (tyrosine phosphatase / DiFMUP assay)", "format": "biochemical", "parameters": "INHIBITION % (PRL-1 inhibitory activity): concentration or dose not given beside the values", "settings": "for inhibitory activity against PRL-1: Promega tyrosine phosphatase assay system, TNT-expressed His-tagged PRL-1 (FIG. 7C); for INHIBITION % (PRL-1 inhibitory activity): UA Natural Products Library hits", "text": "Assays that measure the removal of phosphates from proteins or peptides containing phosphotyrosine may also be employed in the present invention. One method of screening for drug targets would involve measuring inhibition of PRL-1-mediated tyrosine dephosphorylation. This assay detects the amount of free […] generated in a reaction by measuring the absorbance of a molybdate:malachite green:phosphate complex. This assay detects the activity of protein tyrosine phosphatases. Such assays or systems are commercially available from suppliers such as Promega (Madison, Wis.) or Applied Biosystems (Foster City, Calif.).\nAnother assay employed in the present invention is an improved method for measuring protein phosphatases for high-throughput screening involving 6,8-difluoro-4-methylumbelliferyl phosphate (DiFMUP). DiFMUP can assay both acid and alkaline phosphatase activity. […] The lower pka of its hydrolysis product makes DiFMUP a sensitive substrate for acid phosphatases, which is not possible with MUP because its fluorescence must be measured at alkaline pH. Furthermore, with its high quantum yield, DiFMUP increases the sensitivity of both acid and alkaline phosphatase measurements. […] DiFMUP enables the quantitation of as little as 1.0 pg/ml alkaline phosphatase.\nFor example, in the present invention, a bacterial expression system may be employed (i.e., pProEx vector) from which recombinant His-tagged PRl-1 protein may be obtained and purified using a column (i.e., a nickel column). The PRl-1 enzymatic activity in the presence of a drug compound of interest and in combination with DiFMUP substrate may be incubated (about 1 h) and the dephosphorylated substrate detected.\nTo produce PRL-1 protein for in vitro phosphatase assays, the PRL-1 gene was cloned into an expression vector with a His tag (pcDNA™ 3.1 from Invitrogen) and the protein expressed in vitro using the TNT coupled transcription and translation kit (Promega). […] The molecular weight of this PRL-1 protein (22KDa) is exactly the same as reported in the literature. An in vitro phosphatase assay was conducted using a tyrosine phosphatase assay system (Promega) to confirm the dephosphorylation activity of the recombinant PRL-1 protein.\nThis assay was optimized and used to screen various compound libraries for PRL-1 inhibitors. […] Compounds identified using the DiFMUP in vitro assay to screen compounds from the Nanosyn Combichem library and the NCI database include NS19999, NS45609, NS45336, and NCI668394 respectively.\nThe inventors first cloned the full length open reading frame of PRL-1 to the bacteria expression vector pProEx-HTa (Invitrogen) under the control of an IPTG inducible promoter. A six-histidine tag was added to the C-terminus of PRL-1 for quick purification of PRL-1 using the Ni-NTA system. The expression vector was transformed to bacteria strain BL21 and checked for PRL-1 expression using Western blot. For large scale expression, bacteria were grown in 500 ml LB media to logarithm phase (OD600 between 0.5 to 0.9) and induced to express PRL-1 by adding IPTG to final concentration of 1 mM and incubating for 4 hours. Bacteria were harvested by centrifugation at 5,000 rpm for 5 min and resuspended in the Native Binding Buffer (50 mM NaPO4, 0.5M NaCl, pH8.0, and 10 mM imidazole) at 16 ml/100 ml culture. The bacteria cells were then lysated by adding lmg/ml lysozyme and sonication. The cell lysate was centrifuged at 3,000 g for 15 min and the supernatant were then transferred to a 10-ml column pre-packed with 1.5 ml of Ni-NTA resin (Invitrogen). The column was gently agitated for 60 min to allow the binding of the His-tagged PRL-1 to the resin. After the binding reaction, the column was washed with the Native Wash Buffer (50 mM NaPO4, 0.5M NaCl, pH 8.0, and 20 mM imidazole) for 4 times. Finally, the PRL-1 protein was eluted off the column with 10 ml of Native Elution Buffer (50 mM NaPO4, 0.5 M NaCl, pH 8.0, and 250 mM imidazole). […]"}, "Mia PaCa-2 cells": {"test_system": "Mia PaCa-2 cells", "experiment": "cell proliferation assay in Mia PaCa-2 pancreatic cancer cells", "format": "cell-based", "settings": "Homo sapiens", "method": "FIGS. 13A-13C. Inhibition of cell proliferation by PRL-1 inhibitors using a SRB staining assay. FIG.13A—Inhibition of MiaPaCa-2 cell growth by UA668394. Cells were exposed to different doses of UA668394 (0.2 μM to 200 μM) for four days by SRB (Sulforhodamine B) staining. […] FIG. 13B—Inhibition of cell proliferation in pancreatic cancer cells Panc-1 and Mia PaCa-2 by the compound UA66839-1 analog. FIG. 13C—Inhibition of cell proliferation in pancreatic cancer cells Panc-l and Mia PaCa-2 by the compound UA668394-2 analog.\nCell Proliferation Assays. Cell proliferation assays with these cell lines are performed to determine the effect of target inhibition on cell growth. Cells are seeded at 2.0-5.0×10^5 cells in 100-mm culture dishes and allow to attach overnight at 37° C. Adherent cells are washed and incubated with serum-free RPMI 1640 or RPMI containing 10% FBS for 48 h, after which they are trypsinized and counted using a hemocytometer. In addition, parallel experiments are perform and instead of cell counts, the proliferative status of the cell lines is determined using flow cytometric analysis of DNA content. For flow analysis, cells are stained with propidium iodide using a modified Krishan technique (Krishan, 1975). All samples are analyze with an FACSCAN flow cytometer (Becton Dickinson) using a 15 mWatt argon ion laser operated at 6 mWatts of power at 488 nm. Photomultiplier tube voltage is adjusted for each control sample to position the G0/G1 to channel 240 on a 1024 channel presentation. Histograms are analyze for cell cycle compartments using CELLQUEST (Becton Dickinson) analysis software. Histograms having 50K events are collected to maximize the statistical validity of the compartmental analysis. The results of this flow analysis allow the examination of the cell cycle distribution of the pancreatic cancer cell lines.\nUA668394 was previously identified as a PRL-1 phosphatase inhibitor (IC50=7 μM) using high throughout library screening.\nCompounds identified as being positive for anti-PRL-1 activity were tested for their ability to inhibit cell proliferation in human pancreatic cancer cells. The inhibitory activity of UA668394, UA19999 and UA45336 (Table 5) were examined. Cell proliferation assays were conducted using the pancreatic cancer cell line Mia PaCa-2, as described in Example 1. Briefly, 2.0-5.0×10^5 cells were seeded in 100-mm culture dishes and allowed to attach overnight at 37° C. Adherent cells were washed and incubated with serum-free RPMI 1640 or RPMI containing 10% FBS for 48 h, and treated with the compound of interest to determine its effect on the inhibition of cell growth. For example, cells were treated with of the UA668394, UA19999 and UA45336 compounds and analyzed for inhibition of cell proliferative using a MTS assay."}, "[1]": {"settings": "PRL-1 inhibitors identified by library screening, read-out: IC50"}, "[2]": {"settings": "MIA PaCa-2, MTS cell proliferation assay, read-out: IC50, inhibition of cell proliferation in Mia PaCa-2 cells"}}, "note": "Where “and” joins values, the source holds several entries; their conditions need not be identical. Identical values can stand only once. Like-named read-outs stand apart in the source and are kept apart here."}
{"compound": "O=C(O)CN(CCN(CC(=O)O)CC(=O)O)CC(=O)O", "note": "[EDTA, reference compound]", "values": [{"measurement": "inhibitory activity against PRL-1", "setting": "PRL-1", "value": "some inhibitory activity"}]}
{"compound": "COc1cc(NCCC(C)=O)c2ncccc2c1", "note": "[UA292O9]", "values": [{"measurement": "IC50", "setting": "PRL-1; [1]", "value": 41, "unit": "µM"}]}
{"compound": "COc1ccccc1C=C1C(=O)NC(=O)NC1=O", "note": "[UA12499]", "values": [{"measurement": "IC50", "setting": "PRL-1; IC50, PRL-1 inhibitors identified by library screening", "value": 36.5, "unit": "µM"}]}
{"compound": "CCC1=NN(c2ccccc2)C(=O)C(CC(=O)Nc2ccccc2)c2cc(OC)c(OC)cc21", "note": "(centres unmarked) [UA12812]", "values": [{"measurement": "IC50", "setting": "PRL-1; [1]", "value": 66, "unit": "µM"}]}
{"compound": "Nc1cc(S(=O)(=O)C(F)(F)F)ccc1C(=O)O", "note": "[UA12882, 2-Amino-4-trifluoromethanesulfonyl-benzoic acid]", "values": [{"measurement": "IC50", "setting": "PRL-1; [1]", "value": 25, "unit": "µM"}]}
{"compound": "O=C1C=Cc2cc(Br)ccc2C1=O", "note": "[UA13082]", "values": [{"measurement": "IC50", "setting": "PRL-1; [1]", "value": 8.7, "unit": "µM"}]}
{"compound": "O=C(O)c1ccc2c(c1)C(=O)N(c1cccc3ccccc13)C2=O", "note": "[UA13464]", "values": [{"measurement": "IC50", "setting": "PRL-1; [1]", "value": 72, "unit": "µM"}]}
{"compound": "CC(=O)Oc1cc(OC(C)=O)c2c(c1)OC(=O)C(Cl)C2C", "note": "(centres unmarked) [UA14798]", "values": [{"measurement": "IC50", "setting": "PRL-1; [1]", "value": 64, "unit": "µM"}]}
{"compound": "CN1C(=O)C(=O)c2cc([N+](=O)[O-])ccc21", "note": "[UA19999]", "values": [{"measurement": "IC50", "setting": "PRL-1; [1]", "value": 33, "unit": "µM"}, {"measurement": "IC50", "setting": "Mia PaCa-2 cells; [2]", "value": 120, "unit": "µM"}]}
{"compound": "Brc1cccc(C2=NC(c3ccccc3)=C3C=CC=CN3C2)c1", "note": "[UA21497]", "values": [{"measurement": "IC50", "setting": "PRL-1; [1]", "value": 0.1, "unit": "µM"}]}
{"compound": "COC(=O)c1nc(O)c2ccccc2c1O", "note": "[UA45336]", "values": [{"measurement": "IC50", "setting": "PRL-1; [1]", "value": 12.5, "unit": "µM"}, {"measurement": "IC50", "setting": "Mia PaCa-2 cells; [2]", "value": 95, "unit": "µM"}]}
{"compound": "O=C1C(O)=C([N+](=O)[O-])C(=O)c2ccccc21", "note": "[UA45609]", "values": [{"measurement": "IC50", "setting": "PRL-1; [1]", "value": 17, "unit": "µM"}]}
{"compound": "C=[N+](OC)c1nn(CC(=O)Nc2sc(C)c(C)c2C(N)=O)c(C)c1Br", "note": "[UA47548]", "values": [{"measurement": "INHIBITION % (PRL-1 inhibitory activity)", "setting": "PRL-1", "value": 70, "unit": "%"}]}
{"compound": "C=CCn1c(SCC(=O)O)nnc1-c1ccc([N+](=O)[O-])cc1", "note": "[UA58428]", "values": [{"measurement": "INHIBITION % (PRL-1 inhibitory activity)", "setting": "PRL-1", "value": 42, "unit": "%"}]}
{"compound": "C=Cc1ccc2c3c(ccc(C=O)c13)C(Cl)=CC2=O", "note": "[UA61880]", "values": [{"measurement": "INHIBITION % (PRL-1 inhibitory activity)", "setting": "PRL-1", "value": 50, "unit": "%"}]}
{"compound": "NC(=O)c1cc2ccc(O)cc2oc1=O", "note": "[UA63415]", "values": [{"measurement": "INHIBITION % (PRL-1 inhibitory activity)", "setting": "PRL-1", "value": 62, "unit": "%"}]}
{"compound": "N#CC1=C(N)NC(=S)C(C(N)=O)C1c1ccccc1F", "note": "(centres unmarked) [UA64859]", "values": [{"measurement": "INHIBITION % (PRL-1 inhibitory activity)", "setting": "PRL-1", "value": 76, "unit": "%"}]}
{"compound": "O=C1C=C(NCCc2cc(Br)c(O)c(Br)c2)C(=O)c2ncccc21", "note": "[UA668394]", "values": [{"measurement": "IC50", "setting": "PRL-1; [1]", "value": "7 µM and 7.2 µM"}, {"measurement": "IC50", "setting": "Mia PaCa-2 cells; MIA PaCa-2, 96 h, SRB staining, four days exposure, 0.2 μM to 200 μM (FIG. 13A legend), read-out: estimated IC50, inhibition of MiaPaCa-2 cell growth", "value": 1.2, "unit": "µM"}, {"measurement": "IC50", "setting": "Mia PaCa-2 cells; [2]", "value": 1.2, "unit": "µM"}]}
{"compound": "[Na+].[Na+].[Na+].[O]=[V]([O-])([O-])[O-]", "note": "[sodium orthovanadate, reference compound]", "values": [{"measurement": "inhibitory activity against PRL-1", "setting": "PRL-1", "value": "some inhibitory activity"}]}
